Results as given in patent US20240317755A1, “HETEROCYCLIC COMPOUND, AND INTERMEDIATE THEREOF, PREPARATION METHOD THEREFOR AND USE THEREOF” (WUHAN LL SCIENCE AND TECHNOLOGY DEVELOPMENT CO., LTD., priority 2021, published 2024).
Where two headings read alike, the source gives them in different places.

Legend:
[1] = Liver microsome half-life assay, rat; type: in vitro ADME; conditions: liver microsomes, 1 mg/mL liver microsomal protein, 37° C., read-out: Liver microsome T½ (min) Rat
Protocol: The in vitro metabolic stability of the compounds of the present disclosure was determined using warm incubation method of liver microsomes in various species. A proper amount of test compound was added to the liver microsomal reaction system (1 mg/mL liver microsomal protein, 25 U/mL glucose-6-phosphate dehydrogenase, 1 mM NADP, 6 mM D-glucose 6-phosphate, 5 mM MgCl2), and the reaction was started by warm incubation in a water bath at 37° C., then 100 μL of the reaction mixture at each time point was added to a centrifuge tube containing 400 μL of internal standard working solution precooled at 0° C. (containing a solution of 200 ng/mL dexamethasone, diclofenac, tolbutamide, and labetalol in acetonitrile), then the reaction was terminated, centrifuged at 4° C. and 10,000 g for 10 min, and the supernatant was taken into LC-MS for analysis and detection to obtain in vitro metabolic half-lives of the test compounds in liver microsomes of various species.

[2] = Tissue distribution in CD-1 mice after single intragastric administration; type: in vivo; conditions: mouse, oral, male CD-1 mice, 10 mg/kg intragastric
Protocol: Mice: CD-1 mice, SPF grade, 9, male, weighting 18 to 22 g (source: SPF (Beijing) Biotechnology Co., Ltd., certificate number: 110324200103036532).
Dispensing: After accurately weighing compound L015, 20% solutol of the required volume was added thereto first, sonicated for 20 min and stirred for 1.5 hours until no visible particles were visible to the naked eye, and the middle layer of the drug solution was taken for drug administration. 2 parts of the top, middle, and bottom layers of the suspension were taken, and 2 parts of the middle layer of the clarified solution were taken, and 100 μL of each part was accurately aspirated into a 1.5 mL EP tube. Samples were taken before administration, and after sampling, the samples were stored in a −80° C. refrigerator and sent together with the plasma samples for bioanalytical test.
Animals were randomly divided into 3 groups. Compound L015 was administered at 3 different time points, with 3 animals per group, all males. All mice were given a single intragastric administration with an administration volume of 10 mL/kg. The specific grouping and administration information is as follows:
After the administration was completed, the animals in each group were anesthetized by intraperitoneal injection of 1% pentobarbital sodium (the administration volume was 0.06 mL/10 g) 5 minutes before their respective time points, and about 0.3 mL of blood was collected in an anticoagulant EP tube (containing 4 μL of EDTA-K2, 375 mg/mL), which was gently inverted for 3 times and stored in an ice box (no more than 30 minutes), centrifuged at 4° C. for 10 minutes with 3500×g. The supernatant was transferred to a labeled EP tube for bioanalytical test. If it could not be analyzed the same day, it was stored at −80° C. until further testing (be careful not to perform multiple freezing/thawing processes).
After the blood was taken, the abdominal cavity was quickly opened, and the abdominal aorta and vein of the […] were cut. After the blood was drained, the heart, liver, spleen, lung, kidney, and brain of the rat were taken, respectively. After the tissue was taken, the tissue was immediately rinsed with normal saline to remove any residual blood on the surface, blotted dry with filter paper, and the connective tissue was removed and weighed. The homogenization tube was placed in an ice water bath, and the tissue sample homogenate was thoroughly homogenized with a high-speed homogenizer and sent for bioanalytical test. If it could not be analyzed the same day, it was stored at −80° C. until further testing (be careful not to perform multiple thawing/freezing processes).
1.5 Sample analysis method 1.5.1 Experimental instruments: • High performance liquid chromatography pump (pump): Exion LC AD Pump, Sciex Company • Auto sampler: Exion LC AD Autosampler, Sciex Company • Column oven: Exion LC AD Column Oven, Sciex Company • Mass spectrometer: AB Sciex Qtrap 4500 • High-speed refrigerated centrifuge (centrifuge): Thermo Fisher, ST16R, GG1206085-093 • Analytical balance (electronic balance): Mettler Toledo, MS-105D, GG1206363 • Micro vortex (vortex): Shanghai Huxi Analysis Instrument Factory, WH-2, GG1206487 1.5.2 Experimental materials: mouse plasma and tissue
Sample pretreatment process: 3 μL of working solution was taken, and 57 μL of blank matrix was added into a 1.5 mL centrifuge tube, and then 240 μL of acetonitrile solution containing 200 ng/mL tolbutamide and labetalol mixed with 0.1% formic acid was added to precipitate protein. The mixture was vortexed and mixed for 1 minute, and then centrifuged in a 4° C. centrifuge at 13000 rpm for 15 minutes. 100 μL of supernatant was taken and added to another 96 deep well plate, and 100 μL of methanol:water (1:3, v:v) solution containing 0.1% FA was added. The mixture was mixed with shaking for 1 min, and centrifuged at 3500 rpm for 5 min in a 96-well plate centrifuge and the sample was injected directly. […]

- half-life [1]: 174 min
- concentration at 0.167 h ([2]; brain, 20% solutol, read-out: concentration in brain): 706 ng/g
- concentration at 1 h ([2]; brain, 20% solutol, 1 hour): 161 ng/g
- concentration at 10 h ([2]; brain, 20% solutol, 10 hours): 25.9 ng/g
- Kp at 0.167 h ([2]; brain, read-out: brain, times of the plasma concentration): 0.05
- Kp at 1 h ([2]; brain, 1 hour, read-out: brain, times of the plasma concentration): 0.19
- Kp at 10 h ([2]; brain, 10 hours, read-out: brain, times of the plasma concentration): 0.09
- concentration at 0.167 h ([2]; kidney, 20% solutol, read-out: concentration in kidney): 1470 ng/g
- Kp at 0.167 h ([2]; kidney, read-out: kidney, times of the plasma concentration): 2.5
- Kp at 1 h ([2]; kidney, 1 hour, read-out: kidney, times of the plasma concentration): 2.51
- Kp at 10 h ([2]; kidney, 10 hours, read-out: kidney, times of the plasma concentration): 1.5
- concentration at 0.167 h ([2]; liver, 20% solutol, read-out: concentration in liver): 3260 ng/g
- Kp at 0.167 h ([2]; liver, read-out: liver, times of the plasma concentration): 5.55
- Kp at 1 h ([2]; liver, 1 hour, read-out: liver, times of the plasma concentration): 4.53
- Kp at 10 h ([2]; liver, 10 hours, read-out: liver, times of the plasma concentration): 5.05
SMILES: O=C(c1ccc(F)cc1C(F)(F)F)c1cnc2n1CCN(c1cn[nH]c(=O)c1Cl)C2 [Compound 1-6, 4-chloro-5-(3-(4-fluoro-2-(trifluoromethyl)benzoyl)-5,6-dihydroimidazo[1,2-a]pyrazin-7(8H)-yl)pyridazin-3(2H)-one]
